Experimental data from publication PMC4805609, “Estrogenic Effects of Several BPA Analogs in the Developing Zebrafish Brain” (Frontiers in Neuroscience, 2016).
Like-named read-outs stand apart in the source and are kept apart here.

Key:
cyp19a1b gene = experiment: RT-qPCR of cyp19a1b transcripts in wild type 7-dpf larva brains
Method: (§1) For subsequent RT-qPCR and in situ hybridization analysis with wild type zebrafish, groups of 80 embryos (for each condition) were placed after 1 day post-fertilization (1-dpf) in a large glass flask containing 100 ml of embryonic medium (Mouriec et al., [2009b]). […] The embryos were held in the exposure flasks until 7-dpf larva stage. […] Embryos were maintained in the exposure dishes until 4-dpf larva stage. During the treatment period, 100% of the exposure medium was renewed every 24 h (for both wild type and transgenic zebrafish).
Tissue was sonicated (10 s, 3 times) in 250 μL Trizol Reagent (Invitrogen) and RNA extractions were carried out according to the manufacturer's protocol. Reverse transcription was carried out by incubating 2μg total RNA with 1μg of random primer oligonucleotides, 2.5ṁM dNTPs, and 50 U MMLV-RT (Promega) in the appropriate buffer for 10 min at 65°C and 60 min at 37°C. Quantitative Polymerase chain reaction (qPCR) experiments were performed in an iCycler thermocycler coupled to the MyiQ detector (Bio-Rad. Hercules, CA, USA) using iQ SYBR-Green Supermix (Bio-Rad) according to the manufacturer's protocol. The following primers were used: ef1 (fw) 5′-[…]-3′; ef1 (rev) 5′-[…]-3′; cyp19a1b (AroB; fw) 5′-[…] For each condition, the RT-PCR experiment was run in triplicates. Expression levels of ef1 mRNA were used to normalize cyp19a1b expression levels. Melting curve and PCR efficiency analyses were performed to confirm correct amplification. For quantification of PCR results, the threshold cycle (Ct) was determined for each reaction. Ct values for each gene of interest were normalized with the housekeeping gene ef1, using the ΔΔCt method. Normalized values were used to calculate the degree of induction or inhibition expressed as a “fold difference” compared to normalized control values.

cyp19a1b promoter = experiment: EASZY assay: GFP fluorescence in brain of live cyp19a1b-GFP transgenic 4-dpf larvae; assay type: in vivo, zebrafish; conditions: 4-dpf cyp19a1b-GFP larvae, exposure 2 hpf to 4 dpf
Method: Quantification of fluorescence in transgenic cyp19a1b-GFP zebrafish larva brain was performed according to Brion et al. ([2012]). In this assay, estrogenic activity is detected in living 4 days-old larvae (treated or not with an estrogen mimic compound) from the observation of the reporter gene fluorescence in the radial glial cells. […] All photographs were taken using the same parameters: only the head was photographed under a X10 objective, with a 134 ms exposure time and maximal intensity. Photographs were analyzed using the Axiovision Imaging software and fluorescence quantification was performed using the ImageJ software (http://rsbweb.nih.gov/ij/). For each picture, the integrated density was measured, i.e., the sum of the gray-values of all the pixels within the region of interest. A gray-value of 290 was defined as background value. For each micrograph the fluorescence fold induction of fluorescence was calculated comparing the integrated pixel density with the average fluorescence induction obtained in the control group.

cyp19a1b transcripts = experiment: cyp19a1b in situ hybridization on 7-dpf brain sections; assay type: in vivo, zebrafish; conditions: 7-dpf larvae; for distribution of cyp19a1b transcripts in the whole brain: transverse sections
Method: as §1
Larvae used for in situ hybridization experiments originated from the same exposition groups than RT-qPCR experiments. After exposure to the different conditions, 10 wild type 7-dpf larvae (for each treatment) were fixed overnight at 4°C in 4% paraformaldehyde, before embedding in parrafin. Serial thin transverse sections ([…]) were placed on cryofrost slides and subjected to in situ hybridization experiments. Sense and antisense digoxigenin-labeled riboprobes for the cyp19a1b gene were transcribed using the Digoxigenin RNA labeling kit in accordance with the manufacturer's instructions (Roche, Mannheim, Germany) and as previously described (Menuet et al., [2005]). The brain sections were processed for in situ hybridization using stringent conditions as previously published (D'Amico et al., [2011], [2013]). After NBT/BCIP revelation, sections were counterstained with DAPI, and mounted in a drop of vectashield (Vector Laboratories). All sections were photographed with an Olympus PROVIS AX70 microscope with a digital camera (Olympus SP71), or a Nikon multizoom AZ100 macroscope with a DS-Ri1 color camera.

zebrafish embryos/larvae = experiment: Mortality, toxicity, teratogenicity and motility of exposed embryos/larvae; assay type: in vivo; conditions: EE2 1 nM, BPA 0.1, 1, 10 μM; until 7-days larval stage; data not shown
zfERα [1] = biological target: T1, zfERα (Danio rerio, UniProt P57717); experiment: competitive binding assay vs [3H]-E2 on in vitro translated zfERα; set-up: containing the coding regions of each zebrafish estrogen receptor cDNA; species or system zebrafish; conditions: for receptor-binding activity: competition with [3H]-E2, ERα, Figure 8A; for IC50: displacement of 10^−9 M [3H]-E2, ERα
T1 sequence (P57717 1-569): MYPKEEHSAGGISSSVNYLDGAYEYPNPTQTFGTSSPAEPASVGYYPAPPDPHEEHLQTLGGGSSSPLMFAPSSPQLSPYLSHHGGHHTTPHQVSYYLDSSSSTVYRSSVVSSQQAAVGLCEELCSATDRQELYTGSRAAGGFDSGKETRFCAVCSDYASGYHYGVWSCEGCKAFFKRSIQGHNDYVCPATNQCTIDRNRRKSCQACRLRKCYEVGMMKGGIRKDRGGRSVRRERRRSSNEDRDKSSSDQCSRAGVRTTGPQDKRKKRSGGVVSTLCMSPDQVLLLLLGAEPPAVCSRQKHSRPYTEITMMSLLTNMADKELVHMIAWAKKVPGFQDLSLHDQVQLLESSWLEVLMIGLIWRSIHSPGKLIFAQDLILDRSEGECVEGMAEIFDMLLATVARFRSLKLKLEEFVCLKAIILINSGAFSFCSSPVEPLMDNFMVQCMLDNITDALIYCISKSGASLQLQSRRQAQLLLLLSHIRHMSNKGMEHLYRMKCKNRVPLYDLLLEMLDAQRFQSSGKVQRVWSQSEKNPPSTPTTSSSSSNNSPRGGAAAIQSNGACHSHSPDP
Method: We also performed a competitive binding assay to test the binding properties of our compounds of interest with the three zfERs (Blair et al., [2000]). The three zebrafish estrogen receptor proteins were synthesized using the Topo-pcDNA3 expression vector containing the coding region of zfERα, zfERβ1, and zfERβ2 (Menuet et al., [2002]). The TNT Quick Coupled Transcription/Translation Systems kit (Promega, Madison, WI, USA) was used for synthesis of zfER proteins by adding 1 μg of each ER expression vector and according to the manufacturer's protocol. […] IC50 were calculated using GraphPad Prism, version 6.07.

zfERα [2] = biological target: T1, zfERα; experiment: cyp19a1b-luciferase reporter gene assay in U251-MG glial cells transfected with zfERα; assay type: cell-based, zebrafish; set-up: containing the coding regions of each zebrafish estrogen receptor cDNA; expressed in transfected cells; host or cells: human U251-MG glial cells (ER-negative); conditions: for cyp19a1b-luciferase reporter gene induction: 10–6 M, 24 h, U251-MG cells with ERα, vs DMSO
Method: (§2) The medium was also supplemented with 20 U/mL penicillin, 20 μg/mL streptomycin, and 50 ng/mL amphotericin B (Gibco). For transfections, cells were plated in 24-well plates at a density of 25,000 cells/ml in the same medium, except the fetal calf serum was charcoal-treated and used at a concentration of 2.5%. Cells were transfected with 25 ng/well either the vector expression containing or not the zfERα, zfERβ1, zfERβ2 coding region and cytomegalovirus [CMV]−β-Galactosidase, and 150 ng/well of the cyp19a1b-Luciferase reporter plasmid, using JetPEI as a transfection reagent (Polyplus Transfection, Illkirch, France). […] Luciferase activity was measured 24 h later (Luciferase assay system, Promega, Madison, WI, USA). β-Galactosidase activity was used to normalize transfection efficiency. Chemicals were tested in at least 3 independent experiments and each experiment was performed in triplicate.

zfERβ1 = biological target: T2, zfERβ1 (Danio rerio, UniProt Q5PR29); experiment: cyp19a1b-luciferase reporter gene assay in U251-MG glial cells transfected with zfERβ1; assay type: cell-based, zebrafish; conditions: 10–9 M, 24 h, U251-MG cells with ERβ1, vs DMSO
T2 sequence (Q5PR29 1-592): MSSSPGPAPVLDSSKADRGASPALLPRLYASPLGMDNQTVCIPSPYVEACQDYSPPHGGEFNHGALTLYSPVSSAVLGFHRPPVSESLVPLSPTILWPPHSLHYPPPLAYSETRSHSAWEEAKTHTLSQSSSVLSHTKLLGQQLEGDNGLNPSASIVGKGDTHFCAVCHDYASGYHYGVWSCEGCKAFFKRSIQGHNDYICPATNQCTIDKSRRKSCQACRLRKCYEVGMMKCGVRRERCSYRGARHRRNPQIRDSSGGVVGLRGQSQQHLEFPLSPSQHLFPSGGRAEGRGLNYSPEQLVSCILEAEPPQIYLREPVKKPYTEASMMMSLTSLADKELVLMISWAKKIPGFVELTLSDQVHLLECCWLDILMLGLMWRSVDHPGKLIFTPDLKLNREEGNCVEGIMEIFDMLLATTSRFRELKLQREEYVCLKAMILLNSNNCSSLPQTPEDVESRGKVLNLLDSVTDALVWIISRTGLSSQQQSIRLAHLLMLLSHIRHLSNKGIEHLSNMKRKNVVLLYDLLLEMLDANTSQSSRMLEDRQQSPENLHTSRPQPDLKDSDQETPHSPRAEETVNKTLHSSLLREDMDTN
Excerpt: The zfER-α, zfER-β1, and zfER-β2 expression vectors correspond to Topo-pcDNA3 expression vector (Invitrogen, San Diego, CA, USA), containing the coding regions of each zebrafish estrogen receptor cDNA as previously described (Menuet et al., [2002]). The cyp19a1b-Luciferase plasmid consists of 500 bp of the proximal promoter region of zebrafish cyp19a1b gene, containing an ERE, coupled to the luciferase reporter gene (Menuet et al., [2002]).
as §2, with “Human U251-MG glial cells were maintained in phenol red-free Dulbecco's Modified Eagle's Medium (DMEM; Life Technologies, Saint Aubin, France) supplemented with 10% fetal calf serum (Biowest, Nuaillé, France), 4 mM L-Glutamine (Gibco, Carlsbad, CA, USA) and 1 mM Na-Pyruvate (Life Technologies, Saint Aubin, France) and kept at 37°C and 5% CO2 atmosphere (Le Page et al., [2006]). The” for “The”

zfERβ2 = zfERβ2 (Danio rerio, UniProt Q7ZU32); experiment: cyp19a1b-luciferase reporter gene assay in U251-MG glial cells transfected with zfERβ2; assay type: cell-based, zebrafish; conditions: 10–9 M, 24 h, U251-MG cells with ERβ2, vs DMSO
Chain of zfERβ2 (Q7ZU32 1-553): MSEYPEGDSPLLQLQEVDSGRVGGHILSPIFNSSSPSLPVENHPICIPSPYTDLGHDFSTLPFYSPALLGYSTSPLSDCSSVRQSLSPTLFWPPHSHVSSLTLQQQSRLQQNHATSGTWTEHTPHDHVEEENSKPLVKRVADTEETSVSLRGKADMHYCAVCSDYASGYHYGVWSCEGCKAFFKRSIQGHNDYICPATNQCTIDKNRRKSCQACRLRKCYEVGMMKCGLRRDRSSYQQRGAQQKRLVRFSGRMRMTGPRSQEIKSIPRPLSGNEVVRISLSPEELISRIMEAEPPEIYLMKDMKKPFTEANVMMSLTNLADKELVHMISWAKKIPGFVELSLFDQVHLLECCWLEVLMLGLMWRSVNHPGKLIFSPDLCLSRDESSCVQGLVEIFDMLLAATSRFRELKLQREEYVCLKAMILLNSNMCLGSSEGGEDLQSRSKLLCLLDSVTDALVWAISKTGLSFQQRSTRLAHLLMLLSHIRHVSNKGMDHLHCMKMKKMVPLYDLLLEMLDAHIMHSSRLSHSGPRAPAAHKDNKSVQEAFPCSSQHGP
Method: as §2

CC(C)(c1ccc(O)cc1)c1ccc(O)cc1 [BPA, 2,2-bis(4-hydroxyphenyl)propane, reference compound]
fold induction at 0.1 µM (cyp19a1b gene; Danio rerio, read-out: cyp19a1b gene expression, fold induction relative to DMSO, 0.1 μM, 7-dpf larvae brains, Figure 1A): 9
fold induction at 1 µM (cyp19a1b gene; Danio rerio, read-out: cyp19a1b gene expression, fold induction relative to DMSO, 1 μM, 7-dpf larvae brains, Figure 1A): ~20
fold induction at 1 µM (cyp19a1b gene; Danio rerio, read-out: cyp19a1b gene expression, fold induction relative to DMSO, 1 μM, 7-dpf larvae brains, six independent exposures, Figure 1B): ~36
fold induction at 10 µM (cyp19a1b gene; Danio rerio, read-out: cyp19a1b gene expression, fold induction relative to DMSO, 10 μM, 7-dpf larvae brains, Figure 1A): 12
fold induction at 1 µM (cyp19a1b promoter; Danio rerio, read-out: GFP fluorescence, fold induction above DMSO control): 16
cyp19a1b transcripts in the nucleus recessus posterioris (nrp), caudal hypothalamus (cyp19a1b transcripts; 1 μM): strong levels of cyp19a1b transcripts
distribution of cyp19a1b transcripts in the whole brain (cyp19a1b transcripts; 1 μM): strong presence of cyp19a1b transcripts in virtually identical regions than EE2-treated larvae
toxic or teratogenic effect (zebrafish embryos/larvae): did not caused notable toxicological effects
receptor-binding activity (zfERα [1]): bind in vitro to ERα receptor
IC50 (zfERα [1]): 2.8 µM
cyp19a1b-luciferase reporter gene induction (zfERα [2]): significant stimulation

Oc1ccc(Cc2ccc(O)cc2)cc1 [BPF, 4,4′-dihydroxydiphenyl methane]
cyp19a1b gene expression, fold induction relative to DMSO (cyp19a1b gene; 1 μM, 7-dpf larvae brains, six independent exposures, Figure 1B): 20 fold
GFP fluorescence, fold induction above DMSO control (cyp19a1b promoter; 1 μM): 13 fold
distribution of cyp19a1b transcripts in the whole brain (cyp19a1b transcripts; 1 μM): identical to EE2- and BPA-treated animals
receptor-binding activity (zfERα [1]): bind in vitro to ERα receptor
IC50 (zfERα [1]): 10.6 µM
cyp19a1b-luciferase reporter gene induction (zfERα [2]): increased luciferase activity in ERα cells, but the stimulation did not reach statistical significance

C[C@]12CC[C@@H]3c4ccc(O)cc4C[C@@H](CCCCCCCCC[S+]([O-])CCCC(F)(F)C(F)(F)F)[C@H]3[C@@H]1CC[C@@H]2O (stereo partly drawn) [ICI, reference compound]
effect on BPA, BPF and BPAF stimulations of cyp19a1b-luciferase (zfERα [2]; simultaneous treatment, ERα-expressing U251-MG cells, Figure 7B): completely abolished

C#C[C@]1(O)CC[C@H]2[C@@H]3CCc4cc(O)ccc4[C@H]3CC[C@@]21C [EE2, 17α-ethinylestradiol, reference compound]
distribution of cyp19a1b transcripts in the whole brain (cyp19a1b transcripts; EE2 1 nM): massive over-expression of the cyp19a1b transcripts
cyp19a1b-luciferase reporter gene induction (zfERβ1): strong induction
cyp19a1b-luciferase reporter gene induction (zfERβ2): strong induction
